Measured values taken from PMC12583827, “Harnessing microbial-derived metabolites in the urinary tract to prevent infection induced catheter encrustation” (Nature Communications, 2025).
Structures can show the parent of a compound that is named as a salt.

Tests used:
[1] = test system: P. mirabilis urease operon (ureABC, ureEDF); assay: Real-time quantitative PCR of urease operon; assay type: cell-based, Proteus mirabilis
Experimental: P. mirabilis was cultured for ~18 h in LB broth and then sub cultured until it reached mid-log growth phase (OD600 0.2-0.5). Cultures were spun down to pellet at 10,000 rcf for 10 minutes and resuspended in saline to a final OD600 of 1.0. Cultures were then diluted 1:10 into dampening metabolites buffered 1:10 in potassium phosphate buffer pH7 and supplemented with 500 mM urea. P. mirabilis in potassium phosphate buffer without urea served as a negative control. Cultures were incubated in potassium phosphate buffer with and without dampening metabolites at 37 °C with shaking for 15 minutes. RNA isolation, cDNA synthesis and RT qPCR were performed as described previously. […] A RNA integrity analysis using agarose gel electrophoresis on extracted RNA was performed for all samples to confirm no change in transcript stability (Supplementary Fig 16A). The data were analyzed according to the Relative Quantification (RQ) method by Pfaffl et al. 2001[54] (See Supplementary Information).
168 Real-time quantitative PCR analysis. The data were analyzed according to the Relative
169 Quantification (RQ) method by Pfaffl et al 2001 (56) in which P. mirabilis potassium phosphate
170 buffer without urea was considered as the ‘Control’ and P. mirabilis in potassium phosphate
171 buffer supplemented with 500mM urea with and without candidate dampening compounds were
172 the ‘Sample.’ The full equation is below.
(E )ΔCPtarget (control−sample)
174 Relative Quantification Ratio = target Equation 2
(Ereference)ΔCPreference (control−sample)
176 In this equation, E refers to the primer efficiency of the target gene (Etarget, urease operon
177 subunits) or the reference gene (Ereference, rpoA), and CP refers to the Cycle Point, or the cycle
178 number at which the signal exceeds the threshold. […]
183 for whole genome sequencing on the Illumina NextSeq2000 platform. Read trimming, and run
184 analytics were performed using Trimmomatic v0.39.0 (62). The processed reads were assembled
185 using spades v3.15.5 (63) wrapped in Unicycler v0.5.0 (64, 65). Read mapping was done using […]

P. mirabilis urease = settings: 104V0, 106V15, HU1069 compared with HI4320
Experimental: Urease activity was measured as described previously in triplicate with at least three biological replicates[21]. Briefly, bacteria were cultured for ~18 h in LB broth, concentrated to an OD600 of 4, washed once in saline, and diluted (1:10 for P. mirabilis and 1:50 for P. stuartii and M. morganii) into candidate dampening metabolites in potassium phosphate buffer or human urine pH7 and supplemented with 500 mM urea and 0.01% phenol red. Bacterial suspensions were distributed into a 96-well plate, incubated at 37 °C with double-orbital shaking in a Synergy H1 plate reader (BioTek), and absorbance (OD562) was measured every 60 seconds for 180 minutes. Isogenic urease mutants (Supplementary Data 1) served as negative controls for P. mirabilis and P. stuartii and a vehicle control served as a negative control for M. morganii.

P. mirabilis = assay: In vitro glass “bladder” model of catheter encrustation; assay type: cell-based, Proteus mirabilis; settings: for crystalline biofilm formation / Magnesium and phosphorus precipitation on catheter segments (ICP-OES) / catheter biofilm biomass (crystal violet) vs untreated P. mirabilis: 24 h; for crystalline biofilm formation: alone: 1.25 mM AHA, 12.5 mM histamine, 12.5 mM 4-imidazole acetate; for P. mirabilis CFUs in effluent over time / urease-mediated pH increase: tested individually; for urease-mediated pH increase: dose response
Experimental: A Foley catheter is inserted aseptically into the vessel through an opening at the base, the balloon is inflated, and the catheter is attached to a catheter drainage bag (Fig. 7A). The “bladder” is supplied with sterile AUM at a physiologically relevant flow rate via peristaltic pump from a media reservoir, the “kidney” (Fig. 7A). An initial bacterial inoculum of 10^8 CFU of P. mirabilis was added to the AUM in the “bladder” inner chamber to model robust bacteriuria, followed by initiation of flow (Fig. 7B). The performance of urease-dampening metabolites was evaluated as a reduction in 1) effluent AUM pH over the 24 h study period, and 2) crystalline biofilm formation and ion precipitation on catheter segments 24 h post inoculation. Urease-dampening metabolites and AHA were introduced into the system by direct dissolution into the AUM reservoirs. For each study, both positive (untreated P. mirabilis) and negative (untreated P. mirabilis urease negative mutant) controls were included. Effluent urine samples were collected at 0, 3, 6, 9, 12 and 24 h post inoculation. This preclinical model of catheter encrustation was modified to assess whether prophylactic administration of urease-dampening metabolites increases efficacy of antimicrobials against catheter biofilms, as outlined in Fig. 9A. Each experiment was performed in triplicate. Full details of experimental set up, sample collection, and processing are provided below and in Supplementary Materials.
A previously described glass “bladder” model was used, in which a 500 mL water-jacketed glass vessel is maintained at 37 °C via a circulating water bath, a Foley catheter is inserted and inflated, and artificial urine medium (AUM) is supplied into the “bladder” at a constant flow rate (0.75-1.0 mL/min) through a peristaltic pump[55],[56]. For consistency with the in vitro urease activity assays and the physiologic range of urea in healthy human urine, AUM was supplemented with 500 mM urea[57]. Urease-dampening metabolites of interest were directly dissolved in AUM 500 mM urea, adjusted to a pH of 5.8, and filter sterilized via a 0.2μm filter. “Bladders” were inoculated with 10^8 CFUs of P. mirabilis. Samples were collected from the catheter port at 0, 3, 6, 9, 12, and 24 hours to monitor pH and bacterial CFUs. Catheters segments were processed for CFUs, crystal violet staining of biofilm biomass, and ion composition at 24 h. Full details are provided in the Supplementary Methods.
236 and the segments were air dried for 15 min. Catheter segments were stained with 1.0 ml 0.1%
237 crystal violet for 10 min, washed by gentle dunking in 1X phosphate-buffered saline (PBS) to
238 remove excess stain, and solubilized in a microcentrifuge tube containing 750μL of 1% SDS
239 95% ethanol and vortexed for 5 minutes. Crystal violet absorbance (OD570) was measured in a
240 BioTek Synergy H1 microplate reader and blanked using cell-free control wells for each biofilm
243 Catheter segment biofilm viability. Catheter segments were washed by gentle dunking in 1X
244 phosphate-buffered saline (PBS) to remove any remaining planktonic bacteria and residual AUM
245 from the catheter lumen. Catheter segments were then placed in a microcentrifuge tube
246 containing 1mL of 1X PBS and vortexed for 5 minutes to solubilize the biofilm. Samples
247 underwent serial 10-fold dilutions and were spiral plated (Eddy Jet 2; Neutec Group Inc.,
248 Farmingdale, NY) onto low-salt LB agar for enumeration of CFU using a ProtoCOL 3 automated
249 colony counter (Synbiosis).
251 Catheter segment elemental composition. Catheter segments were placed in a microcentrifuge

isolated rabbit bladders = settings: cited from earlier work
[2] = parameters: method as in PMID 9792207; settings: higher doses, four h post intraperitoneal administration; cited from earlier work
[3] = parameters: method as in PMID 9792207; settings: administered into the lateral ventricle; cited from earlier work
[4] = parameters: method as in PMID 9792207; settings: intraperitoneal injections; cited from earlier work
[5] = alone: 5 mM AHA, 25 mM histamine, 25 mM 4-imidazole acetate
[6] = alone: 5 mM AHA, 25 mM histamine, 25 mM 4-imidazole acetate, nucleation point ~ pH 8

O.O=C(O)[C@H](O)Cc1cnc[nH]1 [D-imidazole lactate, D-imidazolelactic acid hydrate]
relative expression of urease mRNA transcripts ([1]; 15-minute incubation, 500 mM urea): decreased | pool of rpoA mRNA transcripts ([1]; 15 minutes incubation): did not affect

NCCc1c[nH]cn1 [Histamine, histamine dihydrochloride]
urease-dampening activity against P. mirabilis clinical isolates (P. mirabilis urease): slightly less potent | crystalline biofilm formation (P. mirabilis): no impact on crystalline biofilm formation | Magnesium and phosphorus precipitation on catheter segments (ICP-OES) (P. mirabilis; [5]): reduced, although the reduction was not statistically significant | catheter biofilm biomass (crystal violet) vs untreated P. mirabilis (P. mirabilis; [5]): significantly reduced biofilm biomass | pH of AUM collected from “bladders” over 24 h (P. mirabilis; alone, lower concentrations): failed to restrict pH | pH of AUM collected from “bladders” over 24 h (P. mirabilis; [6]): never surpassed the nucleation point | P. mirabilis CFUs in effluent over time (P. mirabilis): no meaningful differences between CFUs over time | urease-mediated pH increase (P. mirabilis): perturbed urease-mediated pH increase in a dose-dependent manner | response of isolated rabbit bladders (isolated rabbit bladders): induce a contractile response

Cl.O=C(O)Cc1cnc[nH]1 [4-imidazole acetate, 2-(1H-Imidazol-5-yl)acetic acid hydrochloride]
effects in rats [2]: seizures | blood pressure in cats [3]: dose-dependent decrease in blood pressure | effects in mice [4]: sleep-like state and a decrease in body temperature | crystalline biofilm formation (P. mirabilis): no impact on crystalline biofilm formation | Magnesium and phosphorus precipitation on catheter segments (ICP-OES) (P. mirabilis; [5]): reduced, although the reduction was not statistically significant | catheter biofilm biomass (crystal violet) vs untreated P. mirabilis (P. mirabilis; [5]): significantly reduced biofilm biomass | pH of AUM collected from “bladders” over 24 h (P. mirabilis; alone, lower concentrations): failed to restrict pH | pH of AUM collected from “bladders” over 24 h (P. mirabilis; [6]): never surpassed the nucleation point | P. mirabilis CFUs in effluent over time (P. mirabilis): no meaningful differences between CFUs over time | urease-mediated pH increase (P. mirabilis): perturbed urease-mediated pH increase in a dose-dependent manner
